These results are taken from patent publication US9517243B2, “Beta-mannosylceramide and stimulation of NKT cell anti-tumor immunity” (The United States of America, as represented by the …, priority 2010, dated 2016).

For test [1], the system named is IFN-γ, IL-4, IL-13, IL-12 (p70), and TNF-α in plasma. The test is described as follows: In vivo cytokine assay (plasma, multiplex). Also on record: species or system BALB/c mice. To be noted: 0-24 hours. As to the method: FIGS. 8A-8E show graphs where the cytokine production induced by the glycolipid panel was tested in vivo. BALB/c mice were challenged with CT26 (5×10^5) i.v. followed by 50 pmoles of glycolipid or vehicle control i.p. at time 0. Mice were bled retroorbitally at 0, 3, 6, 12, and 24 hours, and the amount of IFN-γ (8A), TNF-α (8B), IL-4 (8C), IL-12 (p70) (8D), and IL-13 (8E) in plasma was determined. Each data point represents mean±SD of triplicates. […] Little cytokine production was detected following OCH and AH04-2 administration. β-ManCer induced very little cytokine production except for some IL-12 and TNF-α.
In vivo cytokine assay. The concentration of IFN-γ, IL-4, IL-13, IL-12 (p70), and TNF-α in plasma samples was determined by MILLIPLEX cytokine multiplex immunoassay kit (Millipore, Billerica, Mass.) using a Bio-Plex system (Bio-Rad, Hercules, Calif.) according to manufacturer's instructions.

The test system of a further test is iNKT cells. Kind of test: Upregulation of activation markers CD25 and CD69 on iNKT cells. It is filed as cell-based. The settings on record: mouse splenocytes stimulated overnight; data not shown.

Consider `CCCCCCCCCCCCCCCCCCCCCCCCCC(=O)N[C@@H](COC1OC(CO)C(O)C(O)C1O)[C@H](O)[C@H](O)CCCCCCCCCCCCCC` (stereo partly drawn) [β-ManCer, 2-hexacosanoylamino-1-O-β-mannopyranosyl-D-ribo-1,3,4-octadecanetriol], for which the IFN-γ in plasma entry in test [1] (50 pmoles i.p. after CT26 i.v., FIG. 8A) was “no substantial increase”. Moreover, in test [1] (50 pmoles i.p.), the IL-12 in plasma entry is “only a modest increase” and the TNF-α in plasma entry is “only a modest increase”. Also, the IL-4 in plasma entry in test [1] (50 pmoles i.p., FIG. 8C) is “no substantial increase”. Besides, the IL-13 in plasma result in test [1] (50 pmoles i.p., FIG. 8E) is “no substantial increase”. For the same compound, in the test on iNKT cells, the “Upregulation of CD25 and CD69 on iNKT cells” value is on record as “induced upregulation”.
